“Also recorded” adds a separate entry of the source. Where no end group is shown, it is not given here.
Legend:
Assay type in all cases: cell-based
human PTH-1 receptor = target: T1, human PTH-1 receptor (Homo sapiens, UniProt Q03431); assay: cAMP-stimulating activity in HKRK-B7 cells (LLC-PK1 stably transfected with human PTH-1 receptor), RIA; design: maximum cAMP response: dose or concentration left out as unconfirmed; conditions: for increase in intracellular cAMP levels relative to the basal cAMP level: 60 min at 22° C.
T1 construct: expressed in transfected cells; host or cells: HKRK-B7 (LLC-PK1 stably transfected, pCDNA-1-based plasmid)
T1 sequence (Q03431 27-593): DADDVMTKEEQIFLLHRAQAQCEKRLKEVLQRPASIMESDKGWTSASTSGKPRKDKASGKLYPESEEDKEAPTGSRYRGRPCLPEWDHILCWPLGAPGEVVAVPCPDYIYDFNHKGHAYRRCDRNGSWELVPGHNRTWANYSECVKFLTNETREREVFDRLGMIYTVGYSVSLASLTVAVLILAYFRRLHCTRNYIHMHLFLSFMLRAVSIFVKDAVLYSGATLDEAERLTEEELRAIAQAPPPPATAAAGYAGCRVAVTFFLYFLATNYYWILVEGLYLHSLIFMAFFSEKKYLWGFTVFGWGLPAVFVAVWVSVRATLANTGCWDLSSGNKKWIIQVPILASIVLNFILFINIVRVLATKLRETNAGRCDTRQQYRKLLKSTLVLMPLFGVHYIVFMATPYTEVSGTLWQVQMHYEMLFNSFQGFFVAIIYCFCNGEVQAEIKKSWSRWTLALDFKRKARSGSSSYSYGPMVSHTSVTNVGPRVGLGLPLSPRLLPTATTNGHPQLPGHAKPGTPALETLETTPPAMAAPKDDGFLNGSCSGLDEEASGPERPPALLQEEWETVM
Method: (§1) FIG. 2. cAMP-stimulating Activity of PTH Fragments in LLC-PK1 Cells. A) Rat PTH(1–34) analog or amino-terminal rPTH fragments were tested for cAMP-stimulating activity in an LLC-P1-derived cell line (HKRK-B7) stably transfected with the human PTH-1 receptor. Cells were treated with peptide at the indicated doses for 60 min at 22° C. Intracellular cAMP was measured by RIA, as described in Experimental Procedures. Shown are combined data (mean±s.e.m.) from 3 separate experiments, each performed in duplicate. B) HKRK-B7 cells, or untransfected LLC-PK1 were treated with rPTH(1–34) or rPTH(1–14), and intracellular cAMP was measured. Shown are data (mean±s.e.m.) from a single representative experiment performed in duplicate.
FIG. 3. Alanine-scan of PTH(1–14). HKRK-B7 cells were treated with 100 mM of one of 14 different rPTH(1–14) analogs, each having a different alanine-substitution at the indicated amino acid position. The resulting cAMP levels were determined as described in Experimental Procedures. Shown are the combined data (mean±s.e.m.) from three separate experiments, each performed in duplicate. The mean (mean±s.e.m.) basal cAMP levels observed in the three experiments was 2.1±0.1 pmole/well, and the maximum response to rPTH(1–34) at 0.1 mM was 254±16 pmole/well.
Cell Culture and DNA Transfection: COS-7 and HKRK-B7 cells were cultured at 37° C. in Dulbecco's modified Eagle's medium (DMEM) supplemented with fetal bovine serum (10%); penicillin G (20 units/ml), streptomycin sulfate (20 μg/ml) and amphotericin B (0.05 μg/ml) in a humidified atmosphere containing 5% CO2. Twenty-four to 16 hours prior to assay, cells in 24-well plates were shifted to a humidified incubator containing 5% CO2 that was set at 33° C. Stock solutions of EGTA/trypsin and antibiotics were from GIBCO; fetal bovine serum was from Hyclone Laboratories (Logan, Utah). Derivation and characterization of the HKRK-B7 cell line by stable transfection of LLC-PK1 cells with a pCDNA-1-based plasmid (In Vitrogen, San Diego, Calif.) encoding the hPTH-1 receptor was described previously (Takasu, H. and Bringhurst, F., Endocrinology, in press (1998)). These cells express PTH-1 receptors at a surface density of about 1×10^6 PTH-binding sites per cell. The HKRK-B7 cells were used for functional assays 24 to 72 hours after the cell monolayer reached confluency.
(§2) Intracellular cyclic AMP: Transfected COS-7 or HKRK-B7 cells were rinsed with 500 ml of binding buffer, (50 mM Tris-HCl, pH 7.7, 100 mM NaCl, 5 mM KCl, 2 mM CaC12, 5% heat-inactivated horse serum, 0.5% heat-inactivated fetal bovine serum) and 200 ml of IBMX buffer (DMEM containing 2 mM IBMX, 1 mg/ml bovine serum albumin, 35 mM Hepes-NaOH, pH 7.4) and […] of binding buffer or binding buffer containing various amounts of peptide were added. The plates were incubated for 60 minutes at room temperature. The buffer was then withdrawn and the cells were frozen on dry ice, treated with 0.5 ml of 50 mM HCl, and refrozen. After the thawing, the lysate was diluted 30-fold in dH20 and an aliquot was analyzed for cAMP content by determined radioimmunoassay using unlabeled cAMP as a standard.
Amino-terminal peptide fragments based on the rat PTH sequence and ranging in length from PTH(1–9) to PTH(1–15) were synthesized and tested for activity in an LLC-PK1-derived cell line called HKRK-B7 which stably expresses high levels (1×10^6 receptors/cell) of the cloned human PTH-1 receptor (Takasu, H. and Bringhurst, F., Endocrinology, in press (1998)).

[1] = tested on: parental LLC-PK1 cells (no PTH receptors, endogenous calcitonin receptors); assay: cAMP response in untransfected parental LLC-PK1 cells; conditions: untransfected LLC-PK1 cells expressing calcitonin receptor but no PTH receptors
Method: as §1
as §2, with “The buffer was then withdrawn and the cells were frozen on dry ice, treated with 0.5 ml of 50 mM HCl, and refrozen.” left out, “standard. […]” for “standard.”

rat secretin receptor = target: T2, rat secretin receptor (Rattus norvegicus, UniProt P23811); assay: cAMP response in COS-7 cells transfected with the rat secretin receptor; conditions: PTH(1–14) 100 mM
T2 construct: expressed in transfected cells; host or cells: COS-7, transient
Method: FIG. 6. Specificity of the Truncated Ligand and PTH Receptor. COS-7 cells transiently transfected with either rWT-HA (A), rΔNt (B), or the intact rat secretin receptor (C), were treated with the indicated peptides for 60 min at 22° C., and the resulting intracellular cAMP levels were quantified by RIA. […] 1 mM and secretin(1–13), 100 mM. Shown are data (mean±s.e.m.) from one experiment performed in duplicate, and this was repeated twice more with equivalent results.
as §2
In order to test whether PTH(1–14) and rΔNt retained the appropriate recognition specificity for the corresponding parent ligand, cross-reactivity experiments were done using secretin ligands and the cloned rat secretin receptor. […] Cells expressing rΔNt responded to PTH(1–34) and PTH(1–14) but not to secretin(1–27) (1 mM) or secretin(1–13) ([…]) (FIG. 5B). Thus, the recognition specificity of PTH(1–14) and rΔNt appear to replicate that of the intact parent molecules. No evidence for relaxed specificity was detected in these studies (FIG. 6).

T2 sequence (P23811 26-449): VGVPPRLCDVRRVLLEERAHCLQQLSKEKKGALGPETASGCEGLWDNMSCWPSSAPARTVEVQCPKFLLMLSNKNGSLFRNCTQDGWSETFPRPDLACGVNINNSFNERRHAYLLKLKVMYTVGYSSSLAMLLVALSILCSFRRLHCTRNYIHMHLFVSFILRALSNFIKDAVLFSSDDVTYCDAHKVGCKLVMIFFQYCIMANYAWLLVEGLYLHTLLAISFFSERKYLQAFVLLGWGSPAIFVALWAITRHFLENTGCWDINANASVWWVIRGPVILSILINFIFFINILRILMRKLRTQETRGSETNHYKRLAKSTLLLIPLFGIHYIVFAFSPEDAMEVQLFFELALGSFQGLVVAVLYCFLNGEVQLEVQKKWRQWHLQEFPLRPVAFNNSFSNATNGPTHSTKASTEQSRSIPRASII

Molecule	EC50 (human PTH-1 receptor) [nM]	increase in intracellular cAMP levels relative to the basal cAMP level (human PTH-1 receptor; HKRK-B7 cells)	maximum cAMP response (human PTH-1 receptor; HKRK-B7 cells, mean±s.e.m. of three experiments, basal 2.1±0.1 pmole/well) [pmole/well]	cAMP responsiveness of parental LLC-PK1 cells [1]	cAMP response of secretin receptor cells (in words) (rat secretin receptor)	doses required for cAMP activation compared with the dose required for PTH(1–34) (human PTH-1 receptor; HKRK-B7 cells)	potency relative to PTH(1–34) with the intact receptor (human PTH-1 receptor; intact receptor)
CCCC[C@H](NC(=O)[C@H](CCCNC(=N)N)NC(=O)[C@H](CCC(=O)O)NC(=O)[C@@H](NC(=O)[C@H](CO)NC(=O)[C@H](C)NC(=O)[C@H](CC(C)C)NC(=O)[C@H](Cc1c[nH]cn1)NC(=O)[C@H](CCCCN)NC(=O)CNC(=O)[C@H](CC(C)C)NC(=O)[C@H](CC(N)=O)NC(=O)[C@H](Cc1c[nH]cn1)NC(=O)[C@H](CCCC)NC(=O)[C@H](CC(C)C)NC(=O)[C@H](CCC(N)=O)NC(=O)[C@@H](NC(=O)[C@H](CCC(=O)O)NC(=O)[C@H](CO)NC(=O)[C@@H](NC(=O)[C@H](C)N)C(C)C)[C@@H](C)CC)C(C)C)C(=O)N[C@@H](CCC(N)=O)C(=O)N[C@@H](Cc1c[nH]c2ccccc12)C(=O)N[C@@H](CC(C)C)C(=O)N[C@@H](CCCNC(=N)N)C(=O)N[C@@H](CCCCN)C(=O)N[C@@H](CCCCN)C(=O)N[C@@H](CC(C)C)C(=O)N[C@@H](CCC(N)=O)C(=O)N[C@@H](CC(=O)O)C(=O)N[C@H](C(=O)N[C@@H](Cc1c[nH]cn1)C(=O)N[C@@H](CC(N)=O)C(=O)N[C@@H](Cc1ccc(O)cc1)C(N)=O)C(C)C [PTH(1–34), [Nle^8,21,Tyr^34]rPTH-(1–34)NH2]	~2	50 fold	254±16	unresponsive	did not respond	–	–
PTH(1–14): Amino-terminal peptide fragment based on the rat PTH sequence, residues 1–14, C-terminally amidated (AVSEIQLMHNLGKH-NH2)	–	about 20 fold	–	did not activate; also recorded: unresponsive	did not respond	five to six orders of magnitude higher	about five orders of magnitude weaker

Reference: patent publication US7169567B1, “Screening assay utilizing the PTH receptor” (The General Hospital Corporation, priority 1998, dated 2007)
